Source: patent US20170073337A1, “DIHYDROTHIAZINE AND DIHYDROOXAZINE DERIVATIVES HAVING BACE1 INHIBITORY ACTIVITY” (Shionogi & Co., Ltd., priority 2014, published 2017)
Converted amounts (≈) assume the structure as drawn. Read-outs that look alike come from different tables or passages of the source.

Assays:
CYP2C19 = target: T1, CYP2C19 (Homo sapiens, UniProt P33261); experiment: CYP inhibition test (CYP2C19); type: in vitro ADME; conditions: pooled human liver microsomes; mephenytoin 4′-hydroxylation
T1 construct: The commercially available pooled human liver microsomes are used as an enzyme resource; from tissue; host or cells: pooled human liver microsomes
From the text: (§1) The CYP inhibition test is a test to assess the inhibitory effect of a compound of the present invention towards typical substrate metabolism reactions on CYP enzymes in human liver microsomes. The marker reactions on human main five CYP enzymes (CYP1A2, 2C9, 2C19, 2D6, and 3A4) are used as follows: 7-ethoxyresorufin O-deethylation (CYP1A2), tolbutamide methyl-hydroxylation (CYP2C9), mephenytoin 4′-hydroxylation (CYP2C19), dextromethorphan O-demethylation (CYP2D6), and terfenadine hydroxylation (CYP3A4). The commercially available pooled human liver microsomes are used as an enzyme resource.
(§2) The reaction conditions were as follows: substrate, 0.5 μmol/L ethoxyresorufin (CYP1A2), 100 μmol/L tolbutamide (CYP2C9), 50 μmol/L, S-mephenytoin (CYP2C19), 5 μmol/L dextromethorphan (CYP2D6), 1 μmol/L terfenadine (CYP3A4): reaction time, 15 minutes: reaction temperature, 37° C.; enzyme, pooled human liver microsomes 0.2 mg protein/mL; concentrations of the compound of the present invention, 1, 5, 10, 20 μmol/L (four points).
(§3) Five kinds of substrates, human liver microsomes, and a compound solution of the present invention in […] Hepes buffer were added to a 96-well plate at the composition as described above as a reaction solution. NADPH as a cofactor was added to this 96-well plate in order to initiate metabolism reactions. After the incubation at 37° C.for […], a methanol/acetonitrile=1/1 (v/v) solution was added to stop the reaction. After the centrifugation at 3000 rpm for 15 minutes, resorufin (CYP1A2 metabolite) in the supernatant was quantified by a fluorescent plate reader, and hydroxytolbutamide (CYP2C9 metabolite), 4′-hydroxymephenytoin (CYP2C19 metabolite), dextrorphan (CYP2D6 metabolite), and terfenadine alcohol metabolite (CYP3A4 metabolite) in the supernatant were quantified by LC/MS/MS.
(§4) The sample adding DMSO to a reaction system instead of compound of the present invention solution was adopted as a control (100%) because DMSO was used as a solvent to dissolve a compound of the present invention. Remaining activity (%) was calculated at each concentration of a compound of the present invention, and IC50 value was calculated by reverse presumption by a logistic model using a concentration and an inhibition rate.

[1] = tested on: Aβ production in neuroblastoma SH-SY5Y cells (SH/APPwt); experiment: β-amyloid (Aβ) production inhibitory effect in cell: 384-well; type: cell-based; conditions: Homo sapiens, Assay format 384-well
Procedure: Neuroblastoma SH-SY5Y cells (SH/APPwt) with human wild-type β-APT excessively expressed therein were prepared at 4×10^5 cells/mL, and 50 μl portions thereof were inoculated into each well of a 384-well culture plate (Corning) added 0.5 μl of the test compound of the present invention (DMSO solution). The final DMSO concentration was 1%, and the amount of the cell culture was 50 μl. After the incubation was performed for 21 hours from the cell seeding, 5 μl of the culture supernatant was collected from each fraction. The amount of the Aβ in each fraction was measured.
The Aβ amount was measured as follows. 5 μl of a homogeneous time resolved fluoresrenee (HTRF) measurement reagent (Amyloid β1-40 peptide; CIS bio international) and 5 μl of the culture supernatant were put into a 384′well plate (a black plate: Corning) and mixed with each other, and then left standing overnight at 4° C. while the light was shielded. Then, the fluorescence intensity (620 nm and 665 nm) was measured with EnViston (Perkin Elmer life sciences).

Metabolic stability test = type: in vitro ADME; conditions: human liver microsomes, 37° C., 30 minutes, NADPH
Procedure: Using a commercially available pooled human liver microsomes, a compound of the present invention was reacted for a constant time, a remaining rate was calculated by comparing a reacted sample and an unreacted sample, thereby, a degree of metabolism in liver was assessed.
A reaction was performed (oxidative reaction) at 37° C. for 0 minute or 30 minutes in the presence of 1 mmol/L NADPH in 0.2 mL of a buffer (60 mmol/L Tris-HCl pH 7.4, 150 mmol/L potassium chloride, 10 mmol/L magnesium chloride) containing 0.5 mg protein/mL of human liver microsomes. After the reaction, 50 μL of the reaction solution was added to 100 μL of a methanol/acetonltrile=1/1 (v/v), mixed and centrifuged at 3000 rpm for 15 minutes. The compound of the present invention in the supernatant was quantified by LC/MS/MS or solid phase extraction (SPE)/MS, and a remaining amount of the compound of the present invention after the reaction area calculated, letting a compound amount at 0 minute reaction time to be 100%.

Recombinant human BACE1 = target: T2, Recombinant human BACE1 (Homo sapiens, UniProt P56817); experiment: Assay of BACE1 inhibitory activity: 384-well; type: biochemical; conditions: Assay format 384-well
T2 construct: purchased R&D Systems
Procedure: 5 μL of substrate peptide solution (Biotin-XSEVNLDAEFRHDSGC-Eu: X=ε-amino-n-capronic acid, Eu=Europium eryplate) was added to each well of 384-well plate (a black plate: Corning), and after addition of 0.1 μl of the compound of the present invention (DMSO solution) and 5 μl of Recombinant human BACE1 (R&D Systems), the reaction mixture was incubated at 25° C. for 2 hours. The substrate peptide was synthesized by reacting Cryptate TBPCOOH mono SMP (CIS bio international) with Biotin-XSEVNLDAEFRHDSGC (Peptide Institute, Inc.).
After the incubation for reaction, 10 μl of 8.0 μg/ml Streptavidin-XL665 (CIS bio International) dissolved in phosphate buffer (150 mmol/L K2HPO4-KH2PO4, pH 7.0, 0.008% Triton X-100, 0.8 mol/L KF) was added to each well and left stand at 25° C. for 30 minutes.

Solubility test = type: physicochemical; conditions: for solubility kinetic at 1 h: kinetic from dmso stock; for solubility kinetic at 16 h: solubility in JP 2nd fluid B, 1% DMSO, *2: shaken for 1 hour at room temperature
Procedure: A 10 mmol/L solution of the compound was prepared with DMSO, and 2 μL of the compound of the present invention solution was added, respectively, to 198 μL of JP 1st fluid (water was added to 2.0 g of sodium chloride and 7.0 ml, of hydrochloric acid to reach 1000 mL) and JP 2nd fluid (See Table 4). The mixture was left standing for 16 hours at 25° C. or shaken for 1 hour at ruom temperature, and the mixture was vacuum-filtered. The […] was ten or one hundred-fold diluted with metbanol/water=1/1 (v/v) or MeCN/MeOH/H2O(=1/1/2), and the compound concent ration in the filtrate was measured with LC/MS or solid phase extraction (SPE)/MS by the absolute calibration method.

CYP1A2 = target: T3, CYP1A2 (Homo sapiens, UniProt P05177); experiment: CYP inhibition test (CYP1A2); type: in vitro ADME; conditions: pooled human liver microsomes; 7-ethoxyresorufin O-deethylation
T3 construct: The commercially available pooled human liver microsomes are used as an enzyme resource; from tissue; host or cells: pooled human liver microsomes
T3 sequence (P05177 1-516): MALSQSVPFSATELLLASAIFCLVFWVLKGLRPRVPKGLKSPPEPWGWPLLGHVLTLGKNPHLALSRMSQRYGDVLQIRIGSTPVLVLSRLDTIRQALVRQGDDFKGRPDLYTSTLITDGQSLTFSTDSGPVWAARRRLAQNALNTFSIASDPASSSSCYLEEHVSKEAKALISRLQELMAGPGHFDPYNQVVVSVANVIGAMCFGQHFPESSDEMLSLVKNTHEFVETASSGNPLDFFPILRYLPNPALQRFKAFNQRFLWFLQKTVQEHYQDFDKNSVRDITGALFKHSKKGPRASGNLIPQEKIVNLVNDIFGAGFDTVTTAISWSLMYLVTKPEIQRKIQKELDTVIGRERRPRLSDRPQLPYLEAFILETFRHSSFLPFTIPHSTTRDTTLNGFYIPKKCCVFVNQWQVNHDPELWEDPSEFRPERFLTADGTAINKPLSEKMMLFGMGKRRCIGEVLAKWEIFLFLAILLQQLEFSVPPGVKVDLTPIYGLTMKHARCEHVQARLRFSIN
From the text: as §1, §2, §3, §4

CYP3A4 = target: T4, CYP3A4 (Homo sapiens, UniProt P08684); experiment: CYP inhibition test (CYP3A4); type: in vitro ADME; conditions: pooled human liver microsomes; terfenadine hydroxylation
T4 construct: The commercially available pooled human liver microsomes are used as an enzyme resource; from tissue; host or cells: pooled human liver microsomes
From the text: as §1, §2, §3, §4

[2] = target: T5, human ether-a-go-go related gene (hERG) channel (Homo sapiens, UniProt Q12809); experiment: hERG test; type: cell-based; conditions: % inhibition of IKr tail peak current at 3 uM; CHO cells expressing hERG
T5 construct: expressed in transfected cells; host or cells: CHO cells
From the text: For the purpose of assessing risk of an electrocardiogram QT interval prolongation, effects on delayed rectifier K+ current (IKr), which plays an important role in the ventricular repolarization process of the compound of the present invention, was studied using CHO cells expressing human ether-a-go-go related gene (hERG) channel.
A cell was retained at a membrane potential of […] by whole cell patch clamp method using an automated patch clamp system (QPatch:Sophion Bioscience A/S). After application of leak potential at −50 mV, IKr induced by depolarization pulse stimulation at +20 mV for 2 seconds and, further, repolarization pulse stimulation at −50 mV for 2 seconds was recorded.

CYP2C9 = target: T6, CYP2C9 (Homo sapiens, UniProt P11712); experiment: CYP inhibition test (CYP2C9); type: in vitro ADME; conditions: pooled human liver microsomes; tolbutamide methyl-hydroxylation
T6 construct: The commercially available pooled human liver microsomes are used as an enzyme resource; from tissue; host or cells: pooled human liver microsomes
From the text: as §1, §2, §3, §4

[3] = JP 1st fluid, pH 1.2, simulated gastric fluid, read-out: JP1
[4] = JP 2nd fluid B, pH 6.8, aqueous buffer, read-out: JP2_μM

T2 sequence (P56817 46-501): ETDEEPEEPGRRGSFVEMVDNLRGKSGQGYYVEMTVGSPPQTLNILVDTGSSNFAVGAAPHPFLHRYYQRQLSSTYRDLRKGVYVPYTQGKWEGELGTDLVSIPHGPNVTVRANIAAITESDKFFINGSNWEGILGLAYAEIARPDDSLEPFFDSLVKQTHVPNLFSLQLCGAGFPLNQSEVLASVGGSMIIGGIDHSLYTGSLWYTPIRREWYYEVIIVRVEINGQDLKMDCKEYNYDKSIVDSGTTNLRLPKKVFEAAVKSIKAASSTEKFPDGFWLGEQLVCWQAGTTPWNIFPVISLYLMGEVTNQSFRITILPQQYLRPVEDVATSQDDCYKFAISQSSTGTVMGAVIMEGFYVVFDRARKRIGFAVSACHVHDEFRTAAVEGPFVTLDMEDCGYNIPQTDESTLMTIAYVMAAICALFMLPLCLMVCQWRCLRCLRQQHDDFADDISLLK
T1 sequence (P33261 whole entry): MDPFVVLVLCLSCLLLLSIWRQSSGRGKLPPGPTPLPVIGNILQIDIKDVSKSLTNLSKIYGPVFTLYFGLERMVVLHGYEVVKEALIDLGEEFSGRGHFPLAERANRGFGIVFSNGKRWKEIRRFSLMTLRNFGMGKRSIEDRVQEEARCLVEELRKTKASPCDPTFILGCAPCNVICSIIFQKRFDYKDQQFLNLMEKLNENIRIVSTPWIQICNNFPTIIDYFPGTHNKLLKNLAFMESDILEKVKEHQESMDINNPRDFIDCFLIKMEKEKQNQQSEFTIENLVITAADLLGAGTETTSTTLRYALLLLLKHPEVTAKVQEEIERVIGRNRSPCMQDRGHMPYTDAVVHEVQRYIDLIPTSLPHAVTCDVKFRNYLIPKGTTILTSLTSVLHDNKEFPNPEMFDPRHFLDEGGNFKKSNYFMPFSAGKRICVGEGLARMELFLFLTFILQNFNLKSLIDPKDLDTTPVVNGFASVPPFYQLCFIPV
T4 sequence (P08684 whole entry): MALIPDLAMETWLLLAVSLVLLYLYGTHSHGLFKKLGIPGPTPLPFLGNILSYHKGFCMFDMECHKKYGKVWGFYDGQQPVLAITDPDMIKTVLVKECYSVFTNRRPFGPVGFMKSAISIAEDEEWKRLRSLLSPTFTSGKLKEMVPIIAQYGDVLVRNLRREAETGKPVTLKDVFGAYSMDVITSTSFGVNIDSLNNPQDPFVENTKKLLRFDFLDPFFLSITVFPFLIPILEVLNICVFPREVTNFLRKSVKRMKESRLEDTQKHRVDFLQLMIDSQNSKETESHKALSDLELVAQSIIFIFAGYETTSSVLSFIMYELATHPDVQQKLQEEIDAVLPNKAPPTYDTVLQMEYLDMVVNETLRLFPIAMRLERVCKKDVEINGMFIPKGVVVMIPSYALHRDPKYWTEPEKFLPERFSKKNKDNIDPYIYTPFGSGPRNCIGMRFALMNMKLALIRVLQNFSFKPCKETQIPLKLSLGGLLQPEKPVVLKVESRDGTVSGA
T6 sequence (P11712 whole entry): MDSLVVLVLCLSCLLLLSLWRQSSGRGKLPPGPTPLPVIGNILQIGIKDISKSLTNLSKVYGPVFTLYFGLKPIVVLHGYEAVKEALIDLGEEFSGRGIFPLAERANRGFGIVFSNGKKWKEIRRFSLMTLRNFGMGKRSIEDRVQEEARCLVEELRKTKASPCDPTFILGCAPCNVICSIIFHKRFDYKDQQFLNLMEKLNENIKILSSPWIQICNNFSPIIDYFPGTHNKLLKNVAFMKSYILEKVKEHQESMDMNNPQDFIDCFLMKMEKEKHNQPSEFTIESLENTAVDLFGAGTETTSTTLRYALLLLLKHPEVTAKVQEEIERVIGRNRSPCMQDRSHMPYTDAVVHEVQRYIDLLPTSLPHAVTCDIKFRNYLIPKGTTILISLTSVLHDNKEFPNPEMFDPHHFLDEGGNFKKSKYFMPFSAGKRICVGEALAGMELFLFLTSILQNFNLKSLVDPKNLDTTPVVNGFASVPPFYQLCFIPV
T5 sequence (Q12809 whole entry): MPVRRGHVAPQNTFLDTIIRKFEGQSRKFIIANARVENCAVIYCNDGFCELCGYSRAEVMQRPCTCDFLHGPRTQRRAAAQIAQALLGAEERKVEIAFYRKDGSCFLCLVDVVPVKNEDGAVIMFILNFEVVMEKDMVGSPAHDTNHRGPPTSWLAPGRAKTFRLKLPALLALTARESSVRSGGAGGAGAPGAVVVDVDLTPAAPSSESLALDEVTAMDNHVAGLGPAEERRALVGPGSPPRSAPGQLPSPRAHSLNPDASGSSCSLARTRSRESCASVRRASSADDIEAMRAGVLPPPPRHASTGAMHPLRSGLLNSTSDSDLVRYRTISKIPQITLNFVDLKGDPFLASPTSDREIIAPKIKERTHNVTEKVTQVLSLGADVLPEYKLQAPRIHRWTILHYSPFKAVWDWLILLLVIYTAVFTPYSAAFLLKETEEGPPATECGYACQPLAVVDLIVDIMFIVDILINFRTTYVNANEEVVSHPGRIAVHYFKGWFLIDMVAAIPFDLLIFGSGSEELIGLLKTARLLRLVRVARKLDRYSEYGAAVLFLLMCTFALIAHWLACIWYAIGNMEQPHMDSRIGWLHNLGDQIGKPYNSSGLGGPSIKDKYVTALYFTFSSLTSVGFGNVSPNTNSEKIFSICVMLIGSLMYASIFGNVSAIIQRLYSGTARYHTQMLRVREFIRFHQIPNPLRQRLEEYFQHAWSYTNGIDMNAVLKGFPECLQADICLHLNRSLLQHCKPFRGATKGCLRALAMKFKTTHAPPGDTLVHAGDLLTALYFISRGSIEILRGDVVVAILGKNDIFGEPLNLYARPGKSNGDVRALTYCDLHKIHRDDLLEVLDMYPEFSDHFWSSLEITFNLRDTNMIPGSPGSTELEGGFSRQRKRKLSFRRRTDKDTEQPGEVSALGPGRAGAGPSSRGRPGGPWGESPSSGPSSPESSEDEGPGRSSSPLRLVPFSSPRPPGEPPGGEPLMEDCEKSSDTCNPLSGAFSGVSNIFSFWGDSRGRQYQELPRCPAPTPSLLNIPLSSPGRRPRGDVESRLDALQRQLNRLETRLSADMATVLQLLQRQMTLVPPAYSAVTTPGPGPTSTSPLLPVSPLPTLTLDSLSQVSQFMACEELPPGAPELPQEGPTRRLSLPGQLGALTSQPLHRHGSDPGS

SMILES | IC50 (CYP2C19) | IC50 [1] | remaining % (Metabolic stability test) | IC50 (Recombinant human BACE1) | solubility kinetic at 1 h (Solubility test; [3]) | solubility kinetic at 16 h (Solubility test; read-out: JP2_μM) | IC50 (CYP1A2) | IC50 (CYP3A4) | solubility kinetic at 1 h (Solubility test; [4]) | hERG_3 uM_% [2] | IC50 (CYP2C9)
COc1ccc(C(=O)Nc2ccc(F)c([C@@]3(C)N=C(N)O[C@H](C4(F)CC4)[C@@H]3F)c2)nc1 [Compound I-100] | ≥ 20000 nM | 13 nM | 60.2% | 26 nM | > 50 µM | >50.0 µM | ≥ 20000 nM | ≥ 20000 nM | – | – | –
C[C@]1(c2cc(NC(=O)c3cnc(OCF)cn3)ccc2F)N=C(N)O[C@H](C2(F)CC2)[C@@H]1F [Compound I-94] | – | 3.5 nM | – | – | – | – | – | – | – | – | –
COC[C@H]1SC(N)=N[C@](C)(c2cc(NC(=O)c3ccc(C#N)cn3)ccc2F)[C@H]1F [Compound I-92] | ≥ 20000 nM | 1 nM | 81% | 8.27 nM | > 50 µM | >50 µM | ≥ 20000 nM | ≥ 20000 nM | – | – | –
COc1ccc(C(=O)Nc2ccc(F)c([C@@]3(C)N=C(N)O[C@H](C(F)(F)C4CC4)[C@@H]3F)c2)nc1 [Compound I-93] | ≥ 20000 nM | 28 nM | 82.2% | 44.5 nM | > 50 µM | – | ≥ 20000 nM | – | 6.1 µM (≈ 2.85 µg/mL) | – | –
C[C@]1(c2cc(NC(=O)c3cnc(OCF)cn3)ccc2F)N=C(N)SCC12CC(F)(F)C2 [Compound I-56] | ≥ 20000 nM | 0.53 nM | – | – | > 50 µM | >50 µM | ≥ 20000 nM | ≥ 10000 nM | – | 37.6% | ≥ 20000 nM
CC[C@H]1SC(N)=N[C@](C)(c2cc(NC(=O)c3ncc(C#N)cc3C)ccc2F)[C@H]1F [Compound I-68] | ≥ 20000 nM | 0.41 nM | – | 11.6 nM | > 50 µM | – | ≥ 20000 nM | ≥ 10000 nM | 9.1 µM (≈ 3.91 µg/mL) | – | –
[2H]C([2H])([2H])Oc1cnc(C(=O)Nc2ccc(F)c([C@@]3(C)N=C(N)S[C@H](C)[C@@H]3F)c2)cn1 [Compound I-111] | ≥ 20000 nM | 0.97 nM | 64.9% | 10.3 nM | 48.4 µM (≈ 19.9 µg/mL) | – | ≥ 20000 nM | ≥ 20000 nM | > 50 µM | – | –
COc1cnc(C(=O)Nc2ccc(F)c([C@@]3(C)N=C(N)O[C@H](C4(F)CC4)[C@@H]3F)c2)cn1 [Compound I-97] | ≥ 20000 nM | 2.5 nM | – | 10.5 nM | > 50 µM | >50.0 µM | ≥ 20000 nM | ≥ 20000 nM | – | – | –
CC[C@H]1SC(N)=N[C@](C)(c2cc(NC(=O)c3ccc(C#N)cn3)ccc2F)[C@H]1F [Compound I-69] | – | 0.42 nM | 77.6% | 9.24 nM | > 50 µM | >50 µM | – | ≥ 10000 nM | – | – | –
